This is an account of results in patent publication US20130331261A1 (priority 2010, published 2013).

Common to all, as to assay type: cell-based
For assay [1], the system named is DON/Acetyl-DON production by Fusarium graminearum. Put plainly: microbe, parasite or virus in culture. Particulars: 168 h, read-out: % Inhibition of DON/AcDON at 50 μM.
For assay [2], the system named is Production of Aflatoxins by Aspergillus parasiticus. Put plainly: microbe, parasite or virus in culture. Particulars: 168 h, read-out: % Inhibition of Aflatoxin at 50 μM.
Assay [3] concerns Fumonisin FB1 production by Fusarium proliferatum. Briefly: Inhibition of fumonisin FB1 production by Fusarium proliferatum in fumonisin-inducing liquid media (HPLC-MS/MS). Particulars: 120 h, 5 days at 20° C., vs control without compound.
Another assay concerns Aspergillus parasiticus. Put plainly: microbe, parasite or virus in culture. The following applies: 168 h, read-out: % Inhibition of fungal growth at 50 μM.
Another assay concerns Fusarium graminearum. Briefly: microbe, parasite or virus in culture. Particulars: 72 h, read-out: % Inhibition of fungal growth at 50 μM.
Another assay relates to Fusarium proliferatum. Put plainly: microbe, parasite or virus in culture. Particulars: 120 h.

Each structure is given as a SMILES string.

On to `COC(c1ccc(Cl)cc1Cl)C(C)NC(=O)c1c(C)nn(C)c1F` (stereo not drawn) [Example 2], for which the inhibition at 50 µM was 100% in assay [1]; 100% in assay [2]; 100% in assay [3]; 100% with Aspergillus parasiticus; 58% in the assay with Fusarium graminearum; 77% in the assay with Fusarium proliferatum.

With `COC(c1ccc(Cl)cc1Cl)C(C)NC(=O)c1cn(C)nc1C(F)F` (stereo not drawn) [Example 1], the inhibition at 50 µM stood at 100% in assay [1]; 100% in assay [2]; 100% in assay [3]; 100% in the assay on Aspergillus parasiticus; 54% in the assay on Fusarium graminearum; 67% in the assay on Fusarium proliferatum.

As for `COC(c1ccc(Cl)cc1Cl)C(C)NC(=O)c1c(C(F)F)nn(C)c1F` (stereo not drawn) [Example 3], the inhibition at 50 µM in assay [1] is 100%; in assay [2], 100%; in assay [3] it was 100%; in the assay with Aspergillus parasiticus, 100%; in the assay with Fusarium graminearum, 41%; with Fusarium proliferatum it was 86%.
